7 molecules from patent publication US8802655B2, “4-hydroxybenzomorphans” (Rensselaer Polytechnic Institute, priority 2004, dated 2014) can be followed below.

The Ki is a measure of affinity in units of concentration, obtained from inhibition or displacement.

Like-named read-outs stand apart in the source and are kept apart here.

Holding throughout (assay type): binding
For one experiment, the target named is T1, κ opioid receptor (UniProt P41144).
T1 construct: rows headed: Ki (nM ± S.E.) [^3H]U69,593 (κ); other: radioligand [3H]U69,593

A further experiment concerns the target μ opioid receptor (Homo sapiens, UniProt P35372). To be noted: read-out: Ki (nM ± S.E.) [^3H]DAMGO (μ).
Experiment [1] addresses T2, δ opioid receptor (UniProt A0A286XTF2). Also on record: unit μM. The note with it: radioligand [3H]Naltrindole.
Description: (§1) The affinities of the compounds of the invention are determined by the method described in Wentland et al. [BioOrg.
Experiment [2] addresses T2, δ opioid receptor. To be noted: read-out: Ki (nM ± S.E.) [^3H]Naltrindole (δ); radioligand [3H]Naltrindole.
Description: as §1
Where [3] appears, read: radioligand [3H]U69,593; read-out: Ki (nM ± S.E.) [^3H]U69,593 (κ).
[4] abbreviates: read-out: Ki (nM ± S.E.) [^3H]Naltrindole (δ).
The mark [5] stands for this setting: read-out: Ki (nM ± S.E.) [^3H]U69,593 (κ); radioligand [3H]U69,593.

Sequence of μ opioid receptor (P35372 whole entry): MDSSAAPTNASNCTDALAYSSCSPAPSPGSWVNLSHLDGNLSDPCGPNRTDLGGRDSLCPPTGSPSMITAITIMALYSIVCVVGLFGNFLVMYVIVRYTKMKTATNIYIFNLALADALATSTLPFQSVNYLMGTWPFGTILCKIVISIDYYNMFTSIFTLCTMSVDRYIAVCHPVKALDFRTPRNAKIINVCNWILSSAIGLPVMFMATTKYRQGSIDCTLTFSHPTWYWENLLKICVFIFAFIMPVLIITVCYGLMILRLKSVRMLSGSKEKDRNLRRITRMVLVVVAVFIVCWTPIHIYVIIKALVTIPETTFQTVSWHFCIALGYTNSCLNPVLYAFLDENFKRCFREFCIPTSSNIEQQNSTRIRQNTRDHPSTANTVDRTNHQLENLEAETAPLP
Description for κ opioid receptor: as §1
Description for μ opioid receptor: as §1

For the molecule `NC(=O)c1ccc2c3c1O[C@H]1C(=O)CC[C@@]4(O)[C@@H](C2)N(CC2CC2)CC[C@]314` [Sample 2, 3-Carboxyamido-naltrexone], the figures for the Ki at κ opioid receptor (setting [3]), at μ opioid receptor and at δ opioid receptor [1] (setting [4]) were 22 ± 0.85 nM, 1.9 ± 0.21 nM and 110 ± 8.1 nM, respectively.
Turning to `NC(=O)c1ccc2c(c1O)[C@]13CCN(CC4CC4)[C@H](C2)[C@]1(O)CCC(=O)C3` [Sample 3, 3-Carboxyamido-4-hydroxy-naltrexone], the results for the Ki at κ opioid receptor (setting [3]), on μ opioid receptor and on δ opioid receptor [1] (setting [4]) were 0.23 ± 0.018 nM, 0.052 ± 0.004 nM and 2.6 ± 0.26 nM, respectively.
For `COc1ccc2c(c1O)[C@]13CCN(CC4CC4)[C@H](C2)[C@]1(O)CCC(=O)C3` [Sample 4, 3-methoxy-4-hydroxy-naltrexone], the Ki on κ opioid receptor (setting [5]) is 12 ± 0.29 nM; on δ opioid receptor [1] (read-out: Ki [^3H]Naltrindole (δ), unit μM), > 10000 nM.
Consider `COc1ccc2c(c1O)[C@]13CCN(C)[C@H](C2)[C@@H]1C=CC(=O)C3` [Sample 7, 3-Methoxy-4-hydroxy-6-oxo-morphine], for which the inhibition constant (Ki) at κ opioid receptor (setting [5]) came to 740 ± 25 nM; on δ opioid receptor [1] (setting [4]), 2000 ± 80 nM.
The matching figures for `COc1ccc2c(c1O)[C@]13CCN(C)[C@H](C2)[C@@H]1CCC(=O)C3` [Sample 8, 3-Methoxy-4-hydroxy-6-oxo-7,8-dihydro-morphine]: 350 ± 8.5 nM and 1200 ± 65 nM.
For `NC(=O)c1ccc2c(c1O)[C@]13CCN(CC4CCC4)[C@H](C2)[C@]1(O)CCC(=O)C3` [Sample 21, 3-Carboxamido-4-hydroxy-6-oxo-nalbuphine], the Ki on κ opioid receptor (setting [5]) came to 0.27 ± 0.013 nM; at δ opioid receptor [2], 4.2 ± 0.36 nM.
Turning to `NC(=S)c1ccc2c(c1O)[C@]13CCN(CC4CC4)[C@H](C2)[C@]1(O)CCC(=O)C3` [Sample 26, 3-Thiocarboxyamido-4-hydroxy-naltrexone], the inhibition constant Ki amounted to 5 ± 0.72 nM on κ opioid receptor (setting [5]) and 140 ± 11 nM at δ opioid receptor [1] (setting [4]).
